Data on 14 molecules can be found in patent US12296053B2, “Nanomaterials comprising triols” (Beam Therapeutics Inc., priority 2022, dated 2025).

The nature of data set [1]: LNP hydrodynamic diameter and polydispersity index by dynamic light scattering (DLS). To be noted: for Diameter (nm): hydrodynamic diameter of the LNP preparation with the ionizable lipid; for PDI: polydispersity index of the LNP preparation with the ionizable lipid. The format is physicochemical. As for the experimental part: (§1) A 3:1 ratio of aqueous to organic solvent was maintained during mixing using differential flow rates. After mixing, LNP preparations were collected and diluted in TBS (approximately 7:1 v/v), and further buffer exchange was conducted using dialysis in TBS at 4° C. for 8 to 24 hours against a 20 kDa filter. After this initial dialysis, each individual LNP preparation was characterized via dynamic light scattering (DLS) to measure size and polydispersity. pKa of a subpopulation of LNP preparations was measured via TNS assay.
DLS-LNP preparation hydrodynamic diameter and polydispersity index (PDI) was measured using high throughput dynamic light scattering (DLS) (DynaPro plate reader II, Wyatt). LNP preparations were diluted 1×PBS to an appropriate concentration and analyzed.

Data set [2] in a line: Encapsulation efficiency of LNP preparations (Ribogreen assay; Qubit, unlysed and lysed LNPs). The format is physicochemical. To be noted: LNP preparation with the ionizable lipid, ABE mRNA:sgRNA 1:1, except 7-1, 7-2, 7-6, 7-10 (unlysed and lysed LNPs, Qubit). The protocol: (§2) Lipid nanoparticle components were dissolved in 100% ethanol at specified lipid component molar ratios. mRNA encoding an adenine base editor and a chemically-modified sgRNA was dissolved at a mass ratio of 1:1 in 50 mM citrate, pH 4.0, resulting in a concentration of NA cargo of approximately 0.1 mg/mL.
(§3) LNP preparations were formulated with molar ratios of 47.5% Ionizable Lipid: 40% Cholesterol: 2.5% PEG2000-DMG: 10% DSPC total lipid to NA molar ratio of 6 to 12.
(§4) LNP preparations were formed by microfluidic mixing of the lipid and NA solutions using Precision Nanosystems NanoAssemblr Ignite series Instruments, according to the manufacturer's protocol.
With the exception of LNPs comprising ionizable lipids 7-1, 7-2, 7-6, and 7-10, RNA concentration and encapsulation efficiency were determined by Ribogreen assay (BioTek Synergy LX plate reader). For LNPs comprising ionizable lipids 7-1, 7-2, 7-6, and 7-10, RNA concentration was determined by Qubit microRNA kit (for siRNA) or HS RNA kit (for mRNA) per manufacturer's instructions, and encapsulation efficiency was determined by measuring unlysed and lysed LNPs.

The next data set relates to ALAS1 target site. In words: Base editing in liver by LNP-delivered ABE mRNA and sgRNA, targeted deep sequencing. The class given is in vivo. To be noted: LNP with the ionizable lipid, ABE mRNA + sgRNA targeting ALAS1 1:1; tail vein injection, Balb/c mice; 0.05 mg/kg; tissues four to six days post-dose. The protocol:
as §2, §3, §4, §1
Male Balb/C mice aged approximately 8-12 weeks were used in the experiments described herein. […]
Age-matched mice were also used to administer vehicle (1×TBS) via tail vein injection as a control. Four to six days post-dose, tissues including liver, spleen, and bone marrow were collected. Base editing was determined by performing targeted deep sequencing analysis at the ALAS1 target site using extracted genomic DNA. Genomic DNA was isolated and fragmented and adapter-ligated using the Nextera DNA Flex Library Prep Kit (Illumina) using the 96-well plate Nextera indexing primers (Illumina), according to the manufacturer's instructions. Library size and concentration was confirmed by Fragment Analyzer (Agilent) and analyzed for whole genome sequencing using an Illumina HiSeq.

As to `CC/C=C\CCCCOC(CCC(=O)OCC(COC(=O)CCCCCC(=O)OCCC(CCCCC)CCCCC)COC(=O)CCC(CCCCCC)OC(=O)NCCN1CCCC1)OCCCC/C=C\CC` (stereo not shown) [Compound 7-13, 1-(3-((4,4-bis(((Z)-oct-5-en-1-yl)oxy)butanoyl)oxy)-2-(((4-(((2-(pyrrolidin-1-yl)ethyl)carbamoyl)oxy)decanoyl)oxy)methyl)propyl) 7-(3-pentyloctyl) heptanedioate], in data set [1], the “Diameter (nm)” value is given as 52.45 nm and the PDI came out at 0.04. For the same molecule, the “Encapsulation Efficiency (%)” value in data set [2] is on record as 97.3%. Also, the “% Editing in Liver (0.05 mpk)” value in the data set on ALAS1 target site was determined as 2.2%.
As to `CC/C=C\CCCCOC(CCC(=O)OCC(COC(=O)CCCCCCOC(=O)C(CCCC)CCCCCC)COC(=O)CCC(C)OC(=O)NCCN1CCCC1)OCCCC/C=C\CC` (stereo not shown) [Compound 7-28, 12-(((4,4-bis(((Z)-oct-5-en-1-yl)oxy)butanoyl)oxy)methyl)-6-methyl-4,9,15-trioxo-1-(pyrrolidin-1-yl)-5,10,14-trioxa-3-azahenicosan-21-yl 2-butyloctanoate], in data set [1], the “Diameter (nm)” value is reported as 74.80 nm and the PDI is listed as 0.09. For the same molecule, in data set [2], the “Encapsulation Efficiency (%)” value came out at 99.2%.
Regarding `CC/C=C\CCCCOC(CCC(=O)OCC(COC(=O)CCCCCC(=O)OCCC(CCCCC)CCCCC)COC(=O)CCC(CC)OC(=O)NCCN1CCCC1)OCCCC/C=C\CC` (stereo not shown) [Compound 7-24, 1-(3-((4,4-bis(((Z)-oct-5-en-1-yl)oxy)butanoyl)oxy)-2-(((4-(((2-(pyrrolidin-1-yl)ethyl)carbamoyl)oxy)hexanoyl)oxy)methyl)propyl) 7-(3-pentyloctyl) heptanedioate], in data set [1], the “Diameter (nm)” value turned out to be 84.01 nm and the PDI was found to be 0.09. Moreover, the “Encapsulation Efficiency (%)” value in data set [2] came to 85.9%.
Turning to `CC/C=C\CCCCOC(CCC(=O)OCC(COC(=O)CCCCCCCOC(=O)C(CCCC)CCCCCC)COC(=O)CCC(CCCCCC)OC(=O)NCCN1CCCC1)OCCCC/C=C\CC` (stereo not shown) [Compound 7-6, 3-((4,4-bis(((Z)-oct-5-en-1-yl)oxy)butanoyl)oxy)-2-(((8-((2-butyloctanoyl)oxy)octanoyl)oxy)methyl)propyl 4-(((2-(pyrrolidin-1-yl)ethyl)carbamoyl)oxy)decanoate], in data set [1], the “Diameter (nm)” value is recorded as 85.01 nm and the PDI came out at 0.08. The “Encapsulation Efficiency (%)” value in data set [2] was found to be 91.3%.
For `CC/C=C\CCCCOC(CCC(=O)OCC(COC(=O)CCCCCCC/C=C\C/C=C\CCCCC)COC(=O)CCC(CCCCCC)OC(=O)NCCN1CCCC1)OCCCC/C=C\CC` (stereo not shown) [Compound 7-2, 3-((4,4-bis(((Z)-oct-5-en-1-yl)oxy)butanoyl)oxy)-2-(((4-(((2-(pyrrolidin-1-yl)ethyl)carbamoyl)oxy)decanoyl)oxy)methyl)propyl (9Z,12Z)-octadeca-9,12-dienoate], in data set [1], the “Diameter (nm)” value is on record as 43.80 nm and the PDI came to 0.04. The “Encapsulation Efficiency (%)” value in data set [2] is reported as 97.8%.
On the same counts, the results for `CC/C=C\CCCCOC(CCC(=O)OCC(COC(=O)CCCCCCC/C=C\C/C=C\CCCCC)COC(=O)OCC(CCCCCC)OC(=O)NCCN1CCCC1)OCCCC/C=C\CC` (stereo not shown) [Compound 7-5, 12-(((4,4-bis(((Z)-oct-5-en-1-yl)oxy)butanoyl)oxy)methyl)-6-hexyl-4,9-dioxo-1-(pyrrolidin-1-yl)-5,8,10-trioxa-3-azatridecan-13-yl (9Z,12Z)-octadeca-9,12-dienoate] are 78.39 nm, 0.09 and 87.2%.
On the same counts, the results for `CC/C=C\CCCCOC(CCC(=O)OCC(COC(=O)CCCCCC(=O)OCCC(CCCCC)CCCCC)COC(=O)CCC(CCCC)OC(=O)NCCN1CCCC1)OCCCC/C=C\CC` (stereo not shown) [Compound 7-26, 1-(3-((4,4-bis(((Z)-oct-5-en-1-yl)oxy)butanoyl)oxy)-2-(((4-(((2-(pyrrolidin-1-yl)ethyl)carbamoyl)oxy)octanoyl)oxy)methyl)propyl) 7-(3-pentyloctyl) heptanedioate] are 60.05 nm, 0.11 and 98.5%.
For `CC/C=C\CCCCOC(CCC(=O)OCC(COC(=O)CCCCCCOC(=O)C(CCCC)CCCCCC)COC(=O)CCC(CCC)OC(=O)NCCN1CCCC1)OCCCC/C=C\CC` (stereo not shown) [Compound 7-21, 12-(((4,4-bis(((Z)-oct-5-en-1-yl)oxy)butanoyl)oxy)methyl)-4,9,15-trioxo-6-propyl-1-(pyrrolidin-1-yl)-5,10,14-trioxa-3-azahenicosan-21-yl 2-butyloctanoate], in that order: 83.43 nm, 0.03 and 99.2%.
In the case of `CC/C=C\CCCCOC(CCC(=O)OCC(COC(=O)CCCCCCOC(=O)C(CCCC)CCCCCC)COC(=O)CCC(CC)OC(=O)NCCN1CCCC1)OCCCC/C=C\CC` (stereo not shown) [Compound 7-20, 12-(((4,4-bis(((Z)-oct-5-en-1-yl)oxy)butanoyl)oxy)methyl)-6-ethyl-4,9,15-trioxo-1-(pyrrolidin-1-yl)-5,10,14-trioxa-3-azahenicosan-21-yl 2-butyloctanoate], in data set [1], the “Diameter (nm)” value is on record as 84.26 nm and the PDI came out at 0.06. Further, the “Encapsulation Efficiency (%)” value in data set [2] is 99.4%.
With `CC/C=C\CCCCOC(CCC(=O)OCC(COC(=O)CCCCCCOC(=O)C(CCCC)CCCCCC)COC(=O)CCC(CCCCCC)OC(=O)NCCN1CCCC1)OCCCC/C=C\CC` (stereo not shown) [Compound 7-7, 3-((4,4-bis(((Z)-oct-5-en-1-yl)oxy)butanoyl)oxy)-2-(((7-((2-butyloctanoyl)oxy)heptanoyl)oxy)methyl)propyl 4-(((2-(pyrrolidin-1-yl)ethyl)carbamoyl)oxy)decanoate], in data set [1], the “Diameter (nm)” value came to 66.85 nm and the PDI is 0.06. Further, the “Encapsulation Efficiency (%)” value in data set [2] turned out to be 95.0%.
With `CCCCC/C=C\C/C=C\CCCCCCCC(=O)OCC(COC(=O)CCC(CCCCCC)OC(=O)NCCN1CCCC1)COC(=O)CCC(OCCCCCCCC)OCCCCCCCC` (stereo not shown) [Compound 7-1, 3-((4,4-bis(octyloxy)butanoyl)oxy)-2-(((4-(((2-(pyrrolidin-1-yl)ethyl)carbamoyl)oxy)decanoyl)oxy)methyl)propyl (9Z,12Z)-octadeca-9,12-dienoate], in data set [1], the “Diameter (nm)” value is reported as 64.70 nm and the PDI is listed as 0.14. Besides, the “Encapsulation Efficiency (%)” value in data set [2] was 97.5%.
With `CC/C=C\CCCCOC(CCC(=O)OCC(COC(=O)CCCCCCC/C=C\C/C=C\CCCCC)COC(=O)CCC(CCCCCC)OC(=O)OCCCN(CC)CC)OCCCC/C=C\CC` (stereo not shown) [Compound 7-10, 16-(((4,4-bis(((Z)-oct-5-en-1-yl)oxy)butanoyl)oxy)methyl)-3-ethyl-10-hexyl-8,13-dioxo-7,9,14-trioxa-3-azaheptadecan-17-yl (9Z,12Z)-octadeca-9,12-dienoate], in data set [1], the “Diameter (nm)” value is given as 76.95 nm and the PDI is recorded as 0.09. Further, the “Encapsulation Efficiency (%)” value in data set [2] came to 88.2%.
On to `CC/C=C\CCCCOC(CCC(=O)OCC(COC(=O)CCCCCCOC(=O)C(CCCC)CCCCCC)COC(=O)CCC(CCCCCC)OC(=O)NCCN(C)CC)OCCCC/C=C\CC` (stereo not shown) [Compound 7-43, 3-((4,4-bis(((Z)-oct-5-en-1-yl)oxy)butanoyl)oxy)-2-(((7-((2-butyloctanoyl)oxy)heptanoyl)oxy)methyl)propyl 4-(((2-(ethyl(methyl)amino)ethyl)carbamoyl)oxy)decanoate], for which, in data set [1], the “Diameter (nm)” value came out at 114.2 nm and the PDI turned out to be 0.11. Also, the “Encapsulation Efficiency (%)” value in data set [2] is recorded as 89.2%.
On the same counts, the results for `CC/C=C\CCCCOC(CCC(=O)OCC(COC(=O)CCCCCCC/C=C\C/C=C\CCCCC)COC(=O)CCC(CCCCCC)OC(=O)OCCCN(C)C)OCCCC/C=C\CC` (stereo not shown) [Compound 7-3, 15-(((4,4-bis(((Z)-oct-5-en-1-yl)oxy)butanoyl)oxy)methyl)-9-hexyl-2-methyl-7,12-dioxo-6,8,13-trioxa-2-azahexadecan-16-yl (9Z,12Z)-octadeca-9,12-dienoate] are 85.72 nm, 0.72 and 19.8%.
